# Results taken from patent US20140357512A1, “HISTONE DEACETYLASE (HDAC) BIOMARKERS IN MULTIPLE MYELOMA” (priority 2013, published 2014).
# Tested on: human myeloma cell line MM.1S
# Experiment: Biological pathway analysis of SILAC biomarker peptides against pathway database (broadinstitute gsea)
# Protocol: Once biomarker peptides are identified for a specific drug by the SILAC method, the biomarker peptides may be compared to peptides/proteins in a biological pathway database in order to identify major biological pathways or functions implicated by the drug's action. A preferred pathway analysis website is at www dot broadinstitute dot org/gsea/index dot jsp.
# This example describes the biological pathway analysis that was performed on each of Compound A, Compound B, and Tubastatin A.
# Once biomarker peptides were identified for a specific drug (either Compound A, Compound B, or Tubastatin A) by the SILAC method in Example 1, the biomarker peptides were compared to peptides/proteins in the biological pathway database at www dot broadinstitute dot org/gsea/index dot jsp in order to identify major biological pathways or functions implicated by the drug's action.
structure (smiles),measurement,setting,value
"CN1CCc2c(c3ccccc3n2Cc2ccc(C(=O)NO)cc2)C1 [Tubastatin A, reference compound]",Observed: number of genes in pathway REACTOME_PACKAGING_OF_TELOMERE_ENDS,Pathway_size 48,26
same,"Ratio observed/pathway size, REACTOME_PACKAGING_OF_TELOMERE_ENDS",Pathway_size 48,0.5417
same,Observed: number of genes in pathway REACTOME_RNA_POL_I_PROMOTER_OPENING,Pathway_size 61,40
same,"Ratio observed/pathway size, REACTOME_RNA_POL_I_PROMOTER_OPENING",Pathway_size 61,0.6557
same,Observed: number of genes in pathway REACTOME_DEPOSITION_OF_NEW_CENPA_CONTAINING_NUCLEOSOMES_AT_THE_CENTROMERE,Pathway_size 64,27
same,"Ratio observed/pathway size, REACTOME_DEPOSITION_OF_NEW_CENPA_CONTAINING_NUCLEOSOMES_AT_THE_CENTROMERE",Pathway_size 64,0.4219
same,Observed: number of genes in pathway GCM_TPT1,Pathway_size 70,28
same,"Ratio observed/pathway size, GCM_TPT1",Pathway_size 70,0.4
same,Observed: number of genes in pathway REACTOME_MEIOTIC_SYNAPSIS,Pathway_size 71,27
same,"Ratio observed/pathway size, REACTOME_MEIOTIC_SYNAPSIS",Pathway_size 71,0.3803
same,Observed: number of genes in pathway REACTOME_TELOMERE_MAINTENANCE,Pathway_size 75,26
same,"Ratio observed/pathway size, REACTOME_TELOMERE_MAINTENANCE",Pathway_size 75,0.3467
same,Observed: number of genes in pathway STRUCTURAL_CONSTITUENT_OF_RIBOSOME,Pathway_size 80,28
same,"Ratio observed/pathway size, STRUCTURAL_CONSTITUENT_OF_RIBOSOME",Pathway_size 80,0.35
same,Observed: number of genes in pathway MIPS_RIBOSOME_CYTOPLASMIC,Pathway_size 81,32
same,Observed: number of genes in pathway REACTOME_AMYLOIDS,Pathway_size 81,40
same,"Ratio observed/pathway size, MIPS_RIBOSOME_CYTOPLASMIC",Pathway_size 81,0.3951
same,"Ratio observed/pathway size, REACTOME_AMYLOIDS",Pathway_size 81,0.4938
same,Observed: number of genes in pathway REACTOME_MEIOTIC_RECOMBINATION,Pathway_size 84,41
same,"Ratio observed/pathway size, REACTOME_MEIOTIC_RECOMBINATION",Pathway_size 84,0.4881
same,Observed: number of genes in pathway REACTOME_RNA_POL_I_TRANSCRIPTION,Pathway_size 86,40
same,"Ratio observed/pathway size, REACTOME_RNA_POL_I_TRANSCRIPTION",Pathway_size 86,0.4651
same,Observed: number of genes in pathway KEGG_RIBOSOME,Pathway_size 88,33
same,"Ratio observed/pathway size, KEGG_RIBOSOME",Pathway_size 88,0.375
same,Observed: number of genes in pathway MORF_TPT1,Pathway_size 102,32
same,"Ratio observed/pathway size, MORF_TPT1",Pathway_size 102,0.3137
same,Observed: number of genes in pathway MIPS_NOP56P_ASSOCIATED_PRE_RRNA_COMPLEX,Pathway_size 104,33
same,"Ratio observed/pathway size, MIPS_NOP56P_ASSOCIATED_PRE_RRNA_COMPLEX",Pathway_size 104,0.3173
same,Observed: number of genes in pathway REACTOME_MEIOSIS,Pathway_size 112,42
same,"Ratio observed/pathway size, REACTOME_MEIOSIS",Pathway_size 112,0.375
same,Observed: number of genes in pathway GCM_NPM1,Pathway_size 116,36
same,"Ratio observed/pathway size, GCM_NPM1",Pathway_size 116,0.3103
same,Observed: number of genes in pathway GNF2_DAP3,Pathway_size 119,30
same,Observed: number of genes in pathway REACTOME_RNA_POL_I_RNA_POL_III_AND_MITOCHONDRIAL_TRANSCRIPTION,Pathway_size 119,40
same,"Ratio observed/pathway size, GNF2_DAP3",Pathway_size 119,0.2521
same,"Ratio observed/pathway size, REACTOME_RNA_POL_I_RNA_POL_III_AND_MITOCHONDRIAL_TRANSCRIPTION",Pathway_size 119,0.3361
same,Observed: number of genes in pathway GNF2_EIF3S6,Pathway_size 121,33
same,"Ratio observed/pathway size, GNF2_EIF3S6",Pathway_size 121,0.2727
same,Observed: number of genes in pathway GCM_ACTG1,Pathway_size 124,34
same,"Ratio observed/pathway size, GCM_ACTG1",Pathway_size 124,0.2742
same,Observed: number of genes in pathway MORF_ACTG1,Pathway_size 138,39
same,"Ratio observed/pathway size, MORF_ACTG1",Pathway_size 138,0.2826
same,Observed: number of genes in pathway KEGG_SYSTEMIC_LUPUS_ERYTHEMATOSUS,Pathway_size 139,47
same,"Ratio observed/pathway size, KEGG_SYSTEMIC_LUPUS_ERYTHEMATOSUS",Pathway_size 139,0.3381
same,Observed: number of genes in pathway REACTOME_PEPTIDE_CHAIN_ELONGATION,Pathway_size 145,32
same,"Ratio observed/pathway size, REACTOME_PEPTIDE_CHAIN_ELONGATION",Pathway_size 145,0.2207
same,Observed: number of genes in pathway MORF_NME2,Pathway_size 154,39
same,"Ratio observed/pathway size, MORF_NME2",Pathway_size 154,0.2532
same,Observed: number of genes in pathway REACTOME_INFLUENZA_VIRAL_RNA_TRANSCRIPTION_AND_REPLICATION,Pathway_size 161,33
same,"Ratio observed/pathway size, REACTOME_INFLUENZA_VIRAL_RNA_TRANSCRIPTION_AND_REPLICATION",Pathway_size 161,0.205
same,Observed: number of genes in pathway MORF_NPM1,Pathway_size 162,43
same,"Ratio observed/pathway size, MORF_NPM1",Pathway_size 162,0.2654
same,Observed: number of genes in pathway REACTOME_3_UTR_MEDIATED_TRANSLATIONAL_REGULATION,Pathway_size 166,32
same,"Ratio observed/pathway size, REACTOME_3_UTR_MEDIATED_TRANSLATIONAL_REGULATION",Pathway_size 166,0.1928
same,Observed: number of genes in pathway REACTOME_NONSENSE_MEDIATED_DECAY_ENHANCED_BY_THE_EXON_JUNCTION_COMPLEX,Pathway_size 167,32
same,"Ratio observed/pathway size, REACTOME_NONSENSE_MEDIATED_DECAY_ENHANCED_BY_THE_EXON_JUNCTION_COMPLEX",Pathway_size 167,0.1916
same,Observed: number of genes in pathway REACTOME_SRP_DEPENDENT_COTRANSLATIONAL_PROTEIN_TARGETING_TO_MEMBRANE,Pathway_size 170,39
same,"Ratio observed/pathway size, REACTOME_SRP_DEPENDENT_COTRANSLATIONAL_PROTEIN_TARGETING_TO_MEMBRANE",Pathway_size 170,0.2294
same,Observed: number of genes in pathway REACTOME_INFLUENZA_LIFE_CYCLE,Pathway_size 195,37
same,"Ratio observed/pathway size, REACTOME_INFLUENZA_LIFE_CYCLE",Pathway_size 195,0.1897
same,Observed: number of genes in pathway MORF_ANP32B,Pathway_size 197,38
same,"Ratio observed/pathway size, MORF_ANP32B",Pathway_size 197,0.1929
same,Observed: number of genes in pathway REACTOME_TRANSCRIPTION,Pathway_size 207,45
same,"Ratio observed/pathway size, REACTOME_TRANSCRIPTION",Pathway_size 207,0.2174
same,Observed: number of genes in pathway REACTOME_TRANSLATION,Pathway_size 211,39
same,"Ratio observed/pathway size, REACTOME_TRANSLATION",Pathway_size 211,0.1848
same,Observed: number of genes in pathway MORF_UBE2I,Pathway_size 238,43
same,"Ratio observed/pathway size, MORF_UBE2I",Pathway_size 238,0.1807
same,Observed: number of genes in pathway MODULE_32,Pathway_size 241,36
same,"Ratio observed/pathway size, MODULE_32",Pathway_size 241,0.1494
same,Observed: number of genes in pathway MORF_HDAC1,Pathway_size 254,37
same,"Ratio observed/pathway size, MORF_HDAC1",Pathway_size 254,0.1457
same,Observed: number of genes in pathway MORF_DEK,Pathway_size 262,39
same,"Ratio observed/pathway size, MORF_DEK",Pathway_size 262,0.1489
same,Observed: number of genes in pathway MORF_RAN,Pathway_size 268,46
same,"Ratio observed/pathway size, MORF_RAN",Pathway_size 268,0.1716
same,Observed: number of genes in pathway MODULE_151,Pathway_size 318,49
same,"Ratio observed/pathway size, MODULE_151",Pathway_size 318,0.1541
same,Observed: number of genes in pathway MODULE_83,Pathway_size 320,50
same,"Ratio observed/pathway size, MODULE_83",Pathway_size 320,0.1562
same,Observed: number of genes in pathway MODULE_114,Pathway_size 338,49
same,"Ratio observed/pathway size, MODULE_114",Pathway_size 338,0.145
same,Observed: number of genes in pathway HSIAO_HOUSEKEEPING_GENES,Pathway_size 389,68
same,"Ratio observed/pathway size, HSIAO_HOUSEKEEPING_GENES",Pathway_size 389,0.1748
same,Observed: number of genes in pathway MOOTHA_HUMAN_MITODB_6_2002,Pathway_size 429,46
same,"Ratio observed/pathway size, MOOTHA_HUMAN_MITODB_6_2002",Pathway_size 429,0.1072
same,Observed: number of genes in pathway REACTOME_METABOLISM_OF_PROTEINS,Pathway_size 496,56
same,"Ratio observed/pathway size, REACTOME_METABOLISM_OF_PROTEINS",Pathway_size 496,0.1129
same,Observed: number of genes in pathway MARTENS_TRETINOIN_RESPONSE_DN,Pathway_size 841,63
same,"Ratio observed/pathway size, MARTENS_TRETINOIN_RESPONSE_DN",Pathway_size 841,0.07491
same,Observed: number of genes in pathway GRADE_COLON_CANCER_UP,Pathway_size 870,62
same,"Ratio observed/pathway size, GRADE_COLON_CANCER_UP",Pathway_size 870,0.07126
same,Observed: number of genes in pathway DANG_BOUND_BY_MYC,Pathway_size 1102,68
same,"Ratio observed/pathway size, DANG_BOUND_BY_MYC",Pathway_size 1102,0.06171
same,Observed: number of genes in pathway CYTOPLASMIC_PART,Pathway_size 1383,67
same,"Ratio observed/pathway size, CYTOPLASMIC_PART",Pathway_size 1383,0.04845
same,Observed: number of genes in pathway PUJANA_BRCA1_PCC_NETWORK,Pathway_size 1651,84
same,"Ratio observed/pathway size, PUJANA_BRCA1_PCC_NETWORK",Pathway_size 1651,0.05088
same,Observed: number of genes in pathway CYTOPLASM,Pathway_size 2130,83
same,"Ratio observed/pathway size, CYTOPLASM",Pathway_size 2130,0.03897
